Test results taken from patent US20220162548A1, “PRODUCING ISOTHIOCYANATES FROM CALLUS SUSPENSION CULTURES” (PERPETUUM CROPSCIENCE BVBA, priority 2019, published 2022).

Tested on: NON-GMO Impala F1 Cabbage (Brassica oleracea L. var. capitata) callus cultures
Assay: Elicitation of callus cultures, benzyl isothiocyanate accumulation and callus weight
Type: cell-based
Conditions: for Concentration of benzyl isothiocyanate / Dry weight / Fresh weight: four weeks of culture
Procedure: 10 g of calli (fresh weight/vessel) was transferred to the same medium composition in addition to different concentrations of chitosan (200, 400 and 600 mg/L) and salicylic acid (10, 20 and 40 mg/L) as biotic elicitors, in addition to the control treatment without elicitors. After calli was collected, the fresh and dry weights were determined. Dry weight was determined after drying the calli at 45° C. in an oven until a constant weight was obtained. Benzyl Isothiocyanate concentration was also recorded with each treatment. After four weeks of culture, data was documented.
To determine Benzyl Isothiocyanate content, high performance liquid chromatography (HPLC) was performed. The extraction of Benzyl Isothiocyanate was carried out from calli and cells from Erlenmeyer flask culture and single-use ReadyToProcess WAVE Cellbag bioreactor experiments. Samples were homogenized using a glass mortar and pestle (MilliporeSigma, Belgium) containing 70:30 (v:v) MeOH:sterilized water. Extracts were then transferred to glass stoppered Erlenmeyer flasks (DWK Life Sciences) and conditioned in a thermostatic bath (Fisherscientific, Belgium) under constant agitation. For 30 minutes the extraction was carried out at 70° C. and then filtered on Invitrolon PVDF membranes (Polyvinylidene Fluoride) ([…], ThermoFisher Scientific, Belgium) prior to HPLC injection.
Methanolic extracts of the samples were analyzed by HPLC for Benzyl Isothiocyanate concentration using an external standard. HPLC system (Ultimate 3000 Automated System, ThermoFisher Scientific, Belgium) was coupled with UV-Vis detector (UltiMate 3000 Multiple Wavelength Detector, ThermoFisher Scientific, Belgium) and vacuum degasser (UltiMate 3000 SRD-3400 HPLC Degasser, ThermoFisher Scientific, Belgium).
Sample injections of 20 μl were made by an autosampler (UltiMate 3000 WPS-3000 Autosampler, ThermoFisher Scientific, Belgium); the chromatographic separations were performed on C18 Reversed Phase LC columns (Accucore C18 LC Columns, ThermoFisher Scientific, Belgium). Column temperature was maintained at 30° C. and detection wavelength was 253 nm. Optimum efficiency of separation was obtained using methanol (solvent A), and acetonitrile (solvent B) (HPLC grade, Sigma Aldrich, Belgium). The flow rate was 1 ml/minute. The running time for each analysis was 60 minutes, and 10 minutes were required for column cleaning and equilibrium.
The Benzyl Isothiocyanate concentration of the injected samples was calculated as μg/g fresh weight of sample.
Experiments were conducted in a completely randomized design with at least 30 replicates per treatment for the calli experiment and 4 replicates for the cell suspension culture experiments. Data were subjected to statistical analysis by Analysis of Variance (Anova) programme using Duncan's multiple range test as modified by Snedecor and Cochran. Values marked with different letters were considered to be statistically different at p<0.04.

In the case of `O=C(O)c1ccccc1O` [Salicylic acid], the “increase in Benzyl Isothiocyanate accumulation over the control treatment” value (salicylic acid 10 mg/L) is reported as 1.7 times, the “Concentration of benzyl isothiocyanate” value (salicylic acid 10 mg/L) is reported as 2.174 μg/g fresh weight and the Dry weight (salicylic acid 10 mg/L) is reported as 4.807 g. The Fresh weight (salicylic acid 10 mg/L) was 5.985 g, the “Concentration of benzyl isothiocyanate” value (salicylic acid 20 mg/L) was 2.039 μg/g fresh weight and the Dry weight (salicylic acid 20 mg/L) was 4.424 g. The Fresh weight (salicylic acid 20 mg/L) was 4.981 g, the “Concentration of benzyl isothiocyanate” value (salicylic acid 40 mg/L) was 1.956 μg/g fresh weight and the Dry weight (salicylic acid 40 mg/L) was 5.107 g. It also gave a Fresh weight (salicylic acid 40 mg/L) of 5.509 g.
